≈ marks a conversion by molar mass, not a printed value. Where “and” joins values, the source holds several entries; their conditions need not be identical. Equal entries are not always repeated.
What was measured:
[1] = test system: intracellular T. cruzi amastigotes; experiment: T. cruzi intracellular potency assay (high content imaging); assay type: cell-based, Trypanosoma cruzi; parameters: key to Max Effect (T. cruzi): % inhibition; 0% = DMSO control, 100% = 16 μM nifurtimox control; conditions: for IC50 / Emax / EC50: Trypanosoma cruzi; for IC50: intracellular amastigotes in Vero cells, 96 h, mean of N ≥ 3, read-out: T. cruzi pIC50 (converted); for Hill slope (T. cruzi) / Max Effect (T. cruzi) / pEC50 (T. cruzi) / Emax / EC50: individual replicate; for Emax: read-out: Max Effect (T. cruzi); for EC50: read-out: pEC50 (T. cruzi) (converted)
Experimental: (§1) T. cruzi intracellular potency and rate-of-kill assay (high content imaging) ^1
(§2) Silvio X10/7 T. cruzi trypomastigotes were incubated at 37°C 5% CO2 with 1.6×10^7 Vero cells overnight at MOI10 in MEM media supplemented with 10% foetal calf serum (FCS). Extracellular parasites were removed by aspirating cell culture supernatant, and washing Vero monolayer with 10 ml serum-free MEM three times. Vero cells were then harvested by trypsinization and dispensed at 2×10^3 per well (50 μl in MEM/ 1% FCS) into 384 well plates pre-stamped with compounds in DMSO using automated washer/ dispenser EL406 and liquid handling software (Biotek). Plates were then incubated at 37°C in 5% CO2 for 96 h. For rate-of-kill determination, plates were incubated for 24h, 48h, 72h and 96h.
(§3) Plates were subsequently fixed with 4% formaldehyde for 20 min, permeabilised and stained with 5 μgml^-1 Hoechst 33342/ 0.1% Triton/ PBS Thimerosal 20 min. Automated imaging was performed by an Operetta high content imaging system using 20x objective (PerkinElmer). Images were analysed with an algorithm generated in Columbus (PerkinElmer) to segment Vero cell nuclei, Vero cell cytoplasm and parasite nuclei/ kinetoplasts, reporting number of amastigotes per Vero cell, percent infected Vero cells and total number of Vero cells. Compound potencies against T. cruzi parasites were calculated in IDBS Activitybase using percent infected Vero cells and Vero toxicity curves generated using number of host cells. All data was normalised to percent inhibition based on the raw data values for the 100% effect control (16 μM nifurtimox) and the 0% effect control (DMSO) on each plate at each time point. Curve fitting was carried out using a four-parameter equation as previously described. ^2 For rate-of-kill experiments the percent infected cells at each compound concentration was plotted against time.

host Vero cell = experiment: Vero host cell toxicity in the intracellular T. cruzi assay; assay type: cell-based; parameters: key to Max Effect (Vero): % inhibition; 0% = DMSO control, 100% = 16 μM nifurtimox control; conditions: for IC50: host Vero cell, read-out: Vero pIC50 (converted)
Experimental: as §1, §2, §3

Tc-CYP51 = Tc-CYP51 (Trypanosoma cruzi, UniProt Q7Z1V1); experiment: T. cruzi sterol 14α-demethylase (CYP51) enzyme assay; assay type: biochemical; conditions: for Tc CYP51 Hill / Emax / IC50: individual replicate; for Emax: read-out: Tc CYP51 Max Effect; for IC50: read-out: Tc CYP51 pIC50 (converted); for fold more potent against the parasites than against Tc-CYP51: urea series
Experimental: T. cruzi sterol 14α-demethylase (CYP51) enzyme assay
Potency against T. cruzi CYP51 was determined using a previously described fluorescence assay. Average potency for compound 1 was determined with three experimental replicates. Potencies in Fig.3 are from single experimental replicates. ^5

[2] = Kinetic aqueous solubility by CAD; assay type: physicochemical; conditions: kinetic from dmso stock; kinetic, CAD; read-out: Aqueous solubility
[3] = Mouse liver microsomal intrinsic clearance; assay type: in vitro ADME; conditions: mouse liver microsomes
[4] = Human liver microsomal intrinsic clearance; assay type: in vitro ADME; conditions: human liver microsomes
[5] = ChromLogD pH7.4 (chromatographic hydrophobicity index), PFI, LLE; conditions: for PFI: ChromLogDpH7.4 + no. aromatic rings; for chromatographic logD: pH 7.4
Text: [23] Alongside PFI, LLE (ligand lipophilic efficiency, T. cruzi pIC50 - ChromLogDpH7.4) was also monitored to identify changes where the impact on potency was not driven by increasing lipophilicity.

[6] = Chlorocebus sabaeus, Vero, individual replicate

Chain of Tc-CYP51 (Q7Z1V1 whole entry): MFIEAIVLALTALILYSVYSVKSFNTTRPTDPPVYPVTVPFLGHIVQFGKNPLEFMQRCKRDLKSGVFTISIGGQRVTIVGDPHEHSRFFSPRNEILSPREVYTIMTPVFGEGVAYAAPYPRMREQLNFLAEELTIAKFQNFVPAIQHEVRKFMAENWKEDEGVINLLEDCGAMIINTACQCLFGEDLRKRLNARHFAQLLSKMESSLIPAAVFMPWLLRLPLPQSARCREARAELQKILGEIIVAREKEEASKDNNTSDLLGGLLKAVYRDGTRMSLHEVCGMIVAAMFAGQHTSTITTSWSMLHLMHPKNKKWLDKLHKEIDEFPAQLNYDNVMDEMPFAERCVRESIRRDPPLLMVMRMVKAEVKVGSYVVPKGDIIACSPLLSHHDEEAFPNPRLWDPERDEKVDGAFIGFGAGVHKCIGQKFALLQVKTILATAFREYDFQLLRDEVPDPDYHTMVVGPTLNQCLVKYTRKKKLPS

Row | Compound | IC50 [1] [nM] | Hill slope (T. cruzi) [1] | Max Effect (T. cruzi) [1] | pEC50 (T. cruzi) [1] | EC50 (host Vero cell; [6]) [µM] | IC50 (host Vero cell; Chlorocebus sabaeus) [µM] | Max Effect (Vero) (host Vero cell; individual replicate) | Tc CYP51 Hill (Tc-CYP51) | Emax (Tc-CYP51) [%] | IC50 (Tc-CYP51) [nM] | fold more potent against the parasites than against Tc-CYP51 (Tc-CYP51) [fold] | solubility [2] [µM] | MLM CLi [3] [mL/min/g] | HLM CLi [4] [mL/min/g] | PFI [5] | chromatographic logD [5] | Emax [1] [%] | EC50 [1] [nM] | other results
1 | COc1ccc(N2C(=O)C(NC(=O)Nc3ccc(C)cc3)C(=O)Nc3ccccc32)cc1 (stereo not shown) [Compound 4, 1-(1-(4-methoxyphenyl)-2,4-dioxo-2,3,4,5-tetrahydro-1H-benzo[b][1,4]diazepin-3-yl)-3-(p-tolyl)urea] | 1000 | 5.1 and 2.8 and 7.4 and 2.7 and 3.6 and 0.6 and 4.0 and 2.2 | 106 and 89 and 74 and 85 and 86 and 109 and 107 | 5.7 and 6.1 and 5.8 and 6.5 and 5.9 and 6.0 | > 50.1 | > 50.1 | 15 and 26 and 13 and 12 and 17 and 16 and 20 and 4 | 0.9 | 89 | 1580 | 10 | 56 (≈ 24.1 µg/mL) | 1.2 | <0.4 | 7.8 | 4.8 | – | – | –
2 | COc1cccc(N2C(=O)C(NC(=O)Nc3ccc(C)cc3)C(=O)Nc3ccccc32)c1 (stereo not shown) [Compound 5, 1-(1-(3-methoxyphenyl)-2,4-dioxo-2,3,4,5-tetrahydro-1H-benzo[b][1,4]diazepin-3-yl)-3-(p-tolyl)urea] | 2510 | 2.8 and 3.2 | 88 and 91 | 5.7 and 5.5 | > 50.1 | > 50.1 | 47 and 14 and 18 and 12 | 0.7 | 68 | 3980 | 10 | 37 (≈ 15.9 µg/mL) | 1.6 | <0.4 | 7.8 | 4.8 | 87 | 2510 | –
3 | COc1ccc(NC(=O)NC2C(=O)Nc3cccc(F)c3N(c3ccccc3)C2=O)cc1 (stereo not shown) [Compound 9, 1-(9-fluoro-2,4-dioxo-1-phenyl-2,3,4,5-tetrahydro-1H-benzo[b][1,4]diazepin-3-yl)-3-(4-methoxyphenyl)urea] | 398 | 5.2 and 12.9 and 2.3 and 2.7 | 89 and 94 | 6.5 and 6.4 | > 50.1 | > 50.1 | 6 and 11 and -2.3 and 8 | 1.3 | 90 | 10000 | 10 | < 1 | <0.5 | <0.4 | 7.2 | 4.2 | 91 | 501 | –
4 | COc1ccc(CN2C(=O)C(N)C(=O)N(CC3CC(F)(F)C3)c3ccccc32)cc1 (stereo not shown) [Compound 20, 3-amino-1-((3,3-difluorocyclobutyl)methyl)-5-(4-methoxybenzyl)-1,5-dihydro-2H-benzo[b][1,4]diazepine-2,4(3H)-dione] | 1260 | 2.8 and 3.6 and 20.7 | 90 and 80 and 87 | 6.1 and 6.0 and 5.8 | > 50.1 | > 50.1 | 30 and 22 and 25 and 9 | 1.3 | 99 | 100 | – | > 402 | 12 | 0.5 | 6.2 | 4.2 | 84 | 1260 | –
5 | COc1ccc(CN2C(=O)C(N)C(=O)N(c3ccc(OC)nc3)c3ccccc32)cc1 (stereo not shown) [Compound 18, 3-amino-1-(4-methoxybenzyl)-5-(6-methoxypyridin-3-yl)-1,5-dihydro-2H-benzo[b][1,4]diazepine-2,4(3H)-dione] | 501 | 11.9 and 18.7 and 19.1 and 12.3 | 86 and 77 and 83 | – | > 50.1 | > 50.1 | 39 and 19 and 56 and 14 | 1.3 | 100 | 200 | – | > 332 | 5.8 | <0.4 | 6.8 | 3.8 | 75 | 501 | Hill Slope (Vero) (host Vero cell; individual replicate): 3.7; pEC50 (Vero) (host Vero cell; individual replicate): 4.4
6 | COc1ccc(CN2C(=O)C(N)C(=O)N(c3ccccc3)c3ccccc32)cc1 (stereo not shown) [Compound 15, 3-amino-1-(4-methoxybenzyl)-5-phenyl-1,5-dihydro-2H-benzo[b][1,4]diazepine-2,4(3H)-dione] | 1580 | 1.8 and 4.1 and 3.2 and 10.2 | 92 and 88 | 5.7 and 5.9 | > 50.1 | > 50.1 | 9 and 4.52 and 11 and 20 | 1.2 | 94 | 200 | – | > 232 | 16 | 1.3 | 7.1 | 4.1 | 87 | 1580 | –
7 | COc1ccc(CN2C(=O)C(N)C(=O)N(C3CC3)c3ccccc32)cc1 (stereo not shown) [Compound 19, 3-amino-1-cyclopropyl-5-(4-methoxybenzyl)-1,5-dihydro-2H-benzo[b][1,4]diazepine-2,4(3H)-dione] | 3980 | 14.2 and 4.9 and 13.0 and 5.9 | 87 | 5.5 and 5.4 | > 50.1 | > 50.1 | 15 and 17 and 14 | 1.0 | 94 | 316 | – | > 442 | 11.8 | <0.4 | 5.2 | 3.2 | 88 | 5010 | Emax (host Vero cell; Chlorocebus sabaeus, Vero, individual replicate, read-out: Max Effect (Vero)): 18%
8 | COc1ccc(CN2C(=O)C(N)C(=O)N(c3ccc(F)cc3)c3ccccc32)cc1 (stereo not shown) [Compound 17, 3-amino-1-(4-fluorophenyl)-5-(4-methoxybenzyl)-1,5-dihydro-2H-benzo[b][1,4]diazepine-2,4(3H)-dione] | 631 | 24.4 and 25.4 and 12.5 and 3.5 | 87 and 83 | 6.2 and 6.0 | > 50.1 | > 50.1 | 26 and 8 and 14 and 23 | 1.8 | 95 | 200 | – | > 410 | 10.6 | <0.4 | 7.4 | 4.4 | 88 | 501 | –

Source: PMC12208134, “Structure-activity relationships of 1,5-dihydro-2H-benzo[b][1,4]diazepine-2,4(3H)-diones as inhibitors of Trypanosoma cruzi” (RSC medicinal chemistry, 2025)
